Laboratory results reported in publication PMC6838048, “A Cell-Free Approach Based on Phospholipid Characterization for Determination of the Cell Specific Unbound Drug Fraction (fu,cell)” (Pharmaceutical Research, 2019).

Test system: not listed separately
Assay: fu,PL from membrane affinity to PL-covered silica beads, mixed beads
Assay type: in vitro ADME
Details: examples of Fig. 3c, individual PL beads and mixed beads
Method: (§1) f u,PL was derived from membrane affinity measurements to beads covered with PLs as previously described ([6]).
(§2) Cbuffer was quantified by LC-MS/MS in samples of the supernatant that was obtained after 15 min incubation time on an orbital shaker at 1000 rpm and subsequent separation from the beads by centrifugation at 750 x g. […] Unspecific binding was evaluated by incubations into wells without added lipids.

Row | fu,PL (in words) | Structure (SMILES)
1 | low | Cc1cccc(C)c1OCC(=O)N[C@@H](Cc1ccccc1)[C@@H](O)C[C@H](Cc1ccccc1)NC(=O)[C@H](C(C)C)N1CCCNC1=O [Lopinavir]

Same assay, conditions: mixed beads PC:PE:PS:PI 52:22:12:14 mol%, 15 min incubation; read-out: fu,mixed bead Geomean

Row | fraction unbound at 15 min | Structure (SMILES)
2 | 0.0095 | CCOc1cc(CC(=O)N[C@@H](CC(C)C)c2ccccc2N2CCCCC2)ccc1C(=O)O [Repaglinide]
3 | 0.0011 | Cc1cccc(C)c1OCC(=O)N[C@@H](Cc1ccccc1)[C@@H](O)C[C@H](Cc1ccccc1)NC(=O)[C@H](C(C)C)N1CCCNC1=O [Lopinavir]
4 | 0.0004 | Nc1ccc(/N=N/c2ccccc2)c(N)n1 [Phenazopyridine]

Row | Structure (SMILES) | fraction unbound at 15 min
5 | CCN(CC)CCCC(C)Nc1c2ccc(Cl)cc2nc2ccc(OC)cc12 (stereo not drawn) [Quinacrine] | 0.0029

Test system: not listed separately
Assay: fu,cell by equilibrium dialysis of cell homogenate, primary human hepatocytes
Assay type: in vitro ADME
Details: primary human hepatocyte homogenate, dialysis 4 h 37°C, 10 million cells/mL homogenate, read-out: fu,HH Geomean
Method: (§3) fu,cell was measured in cassette-mode as previously described with minor modifications ([9]). Briefly, 10 million cells/mL were suspended in HBSS buffered with 10 mM HEPES and homogenized on ice by sonication (VCX 750 Sonicator, 3 mm probe, 20% intensity, 10 s). Up to 8 compounds were combined randomly and spiked into the homogenate for a final concentration of 0.5 μM. Equilibrium dialysis was performed in a Rapid Equilibirum device (Thermo Fisher Scientific) against blank HBSS buffered with 10 mM HEPES, for 4 h at 37°C on an orbital shaker at 900 rpm. Stability controls were kept at 4° and 37°C for the duration of the experiment. The concentration in both dialysis chambers was quantified by extracting the compound with acetonitrile/water (60/40) containing internal standard. Matrixes were matched with blank buffer or cell homogenate, respectively. LC-MS/MS parameters are available in Table S9. All experiments were carried out in triplicates and at least at two independent occasions.
(§4) The unbound fraction in the cell homogenate (fu,hom) was determined according to Eq. (1):1 fu,hom=Cbuffer/Chom and the fraction of unbound compound in the cell (fu,cell) was calculated by correcting for homogenate dilution according to Eq. (2):2 fu,cell=1/DP∙1/fu,hom−1+1 where the dilution constant DP was calculated using Eq. (3), assuming the Vcell to be equal to 6.5 μL/mg protein ([6],[10]). Protein content in the cell homogenates was determined at each experiment using the BCA Protein Assay Reagent Kit (Thermo Fisher Scientific Inc.).3 DP=1/Vcell

Row | fraction unbound at 4 h, 0.5 μM | Structure (SMILES)
6 | 0.0097 | CCOc1cc(CC(=O)N[C@@H](CC(C)C)c2ccccc2N2CCCCC2)ccc1C(=O)O [Repaglinide]
7 | 0.0044 | Cc1cccc(C)c1OCC(=O)N[C@@H](Cc1ccccc1)[C@@H](O)C[C@H](Cc1ccccc1)NC(=O)[C@H](C(C)C)N1CCCNC1=O [Lopinavir]
8 | 0.0014 | Nc1ccc(/N=N/c2ccccc2)c(N)n1 [Phenazopyridine]

Row | Structure (SMILES) | fraction unbound at 4 h, 0.5 μM
9 | CCN(CC)CCCC(C)Nc1c2ccc(Cl)cc2nc2ccc(OC)cc12 (stereo not drawn) [Quinacrine] | 0.0066

Test system: not listed separately
Assay: fu,cell by equilibrium dialysis of cell homogenate, A549
Assay type: in vitro ADME
Details: human, dialysis 4 h 37°C, 10 million cells/mL homogenate, read-out: fu,A549 Geomean
Method: as §3, §4

Row | fraction unbound at 4 h, 0.5 μM | Structure (SMILES)
10 | 0.0254 | CCOc1cc(CC(=O)N[C@@H](CC(C)C)c2ccccc2N2CCCCC2)ccc1C(=O)O [Repaglinide]
11 | 0.0056 | Cc1cccc(C)c1OCC(=O)N[C@@H](Cc1ccccc1)[C@@H](O)C[C@H](Cc1ccccc1)NC(=O)[C@H](C(C)C)N1CCCNC1=O [Lopinavir]
12 | 0.0085 | Nc1ccc(/N=N/c2ccccc2)c(N)n1 [Phenazopyridine]

Row | Structure (SMILES) | fraction unbound at 4 h, 0.5 μM
13 | CCN(CC)CCCC(C)Nc1c2ccc(Cl)cc2nc2ccc(OC)cc12 (stereo not drawn) [Quinacrine] | 0.0009

Test system: not listed separately
Assay: fu,cell by equilibrium dialysis of cell homogenate, MDCK
Assay type: in vitro ADME
Details: dog, dialysis 4 h 37°C, 10 million cells/mL homogenate, read-out: fu,MDCK Geomean
Method: as §3
(§5) (3), assuming the Vcell to be equal to 6.5 μL/mg protein ([6],[10]). Protein content in the cell homogenates was determined at each experiment using the BCA Protein Assay Reagent Kit (Thermo Fisher Scientific Inc.).3 DP=1/Vcell

Row | fraction unbound at 4 h, 0.5 μM | Structure (SMILES)
14 | 0.0269 | CCOc1cc(CC(=O)N[C@@H](CC(C)C)c2ccccc2N2CCCCC2)ccc1C(=O)O [Repaglinide]
15 | 0.0119 | Cc1cccc(C)c1OCC(=O)N[C@@H](Cc1ccccc1)[C@@H](O)C[C@H](Cc1ccccc1)NC(=O)[C@H](C(C)C)N1CCCNC1=O [Lopinavir]
16 | 0.0215 | Nc1ccc(/N=N/c2ccccc2)c(N)n1 [Phenazopyridine]

Row | Structure (SMILES) | fraction unbound at 4 h, 0.5 μM
17 | CCN(CC)CCCC(C)Nc1c2ccc(Cl)cc2nc2ccc(OC)cc12 (stereo not drawn) [Quinacrine] | 0.0036

Test system: not listed separately
Assay: fu,PL from membrane affinity to PL-covered silica beads, PS
Assay type: in vitro ADME
Details: silica beads covered with phosphatidylserine (PS), Transil; beads coated with pure PS, 15 min incubation; read-out: fu,PS Geomean
Method: as §1, §2

Row | fraction unbound at 15 min | Structure (SMILES)
18 | 0.0084 | CCOc1cc(CC(=O)N[C@@H](CC(C)C)c2ccccc2N2CCCCC2)ccc1C(=O)O [Repaglinide]
19 | 0.0011 | Cc1cccc(C)c1OCC(=O)N[C@@H](Cc1ccccc1)[C@@H](O)C[C@H](Cc1ccccc1)NC(=O)[C@H](C(C)C)N1CCCNC1=O [Lopinavir]
20 | 0.0006 | Nc1ccc(/N=N/c2ccccc2)c(N)n1 [Phenazopyridine]

Row | Structure (SMILES) | fraction unbound at 15 min
21 | CCN(CC)CCCC(C)Nc1c2ccc(Cl)cc2nc2ccc(OC)cc12 (stereo not drawn) [Quinacrine] | 0.001

Test system: not listed separately
Assay: fu,cell by equilibrium dialysis of cell homogenate, LLC-PK1
Assay type: in vitro ADME
Details: pig, dialysis 4 h 37°C, 10 million cells/mL homogenate, read-out: fu,LLCPK1 Geomean
Method: as §3, §4

Row | fraction unbound at 4 h, 0.5 μM | Structure (SMILES)
22 | 0.0305 | CCOc1cc(CC(=O)N[C@@H](CC(C)C)c2ccccc2N2CCCCC2)ccc1C(=O)O [Repaglinide]
23 | 0.0047 | Cc1cccc(C)c1OCC(=O)N[C@@H](Cc1ccccc1)[C@@H](O)C[C@H](Cc1ccccc1)NC(=O)[C@H](C(C)C)N1CCCNC1=O [Lopinavir]
24 | 0.0078 | Nc1ccc(/N=N/c2ccccc2)c(N)n1 [Phenazopyridine]

Row | Structure (SMILES) | fraction unbound at 4 h, 0.5 μM
25 | CCN(CC)CCCC(C)Nc1c2ccc(Cl)cc2nc2ccc(OC)cc12 (stereo not drawn) [Quinacrine] | 0.0008

Test system: not listed separately
Assay: fu,cell by equilibrium dialysis of cell homogenate, HEK293
Assay type: in vitro ADME
Details: human, dialysis 4 h 37°C, 10 million cells/mL homogenate, read-out: fu,HEK293 Geomean
Method: as §3, §4

Row | fraction unbound at 4 h, 0.5 μM | Structure (SMILES)
26 | 0.0312 | CCOc1cc(CC(=O)N[C@@H](CC(C)C)c2ccccc2N2CCCCC2)ccc1C(=O)O [Repaglinide]
27 | 0.0155 | Cc1cccc(C)c1OCC(=O)N[C@@H](Cc1ccccc1)[C@@H](O)C[C@H](Cc1ccccc1)NC(=O)[C@H](C(C)C)N1CCCNC1=O [Lopinavir]
28 | 0.0208 | Nc1ccc(/N=N/c2ccccc2)c(N)n1 [Phenazopyridine]

Row | Structure (SMILES) | fraction unbound at 4 h, 0.5 μM
29 | CCN(CC)CCCC(C)Nc1c2ccc(Cl)cc2nc2ccc(OC)cc12 (stereo not drawn) [Quinacrine] | 0.0075

Test system: not listed separately
Assay: fu,cell by equilibrium dialysis of cell homogenate, Caco-2
Assay type: in vitro ADME
Details: human, Caco-2 cell homogenate, dialysis 4 h 37°C, 10 million cells/mL homogenate, read-out: fu,Caco-2 Geomean
Method: as §3, §5

Row | fraction unbound at 4 h, 0.5 μM | Structure (SMILES)
30 | 0.0225 | CCOc1cc(CC(=O)N[C@@H](CC(C)C)c2ccccc2N2CCCCC2)ccc1C(=O)O [Repaglinide]
31 | 0.0122 | Cc1cccc(C)c1OCC(=O)N[C@@H](Cc1ccccc1)[C@@H](O)C[C@H](Cc1ccccc1)NC(=O)[C@H](C(C)C)N1CCCNC1=O [Lopinavir]
32 | 0.0118 | Nc1ccc(/N=N/c2ccccc2)c(N)n1 [Phenazopyridine]

Test system: cell types of the study
Assay: not given
Details: contributions from several PL subspecies combined (Fig. 5b)

Row | Structure (SMILES) | predicted versus measured fu,cell
33 | CCOc1cc(CC(=O)N[C@@H](CC(C)C)c2ccccc2N2CCCCC2)ccc1C(=O)O [Repaglinide] | consistently over-predicted
34 | CCN(CC)CCCC(C)Nc1c2ccc(Cl)cc2nc2ccc(OC)cc12 (stereo not drawn) [Quinacrine] | consistently over-predicted

Test system: not listed separately
Assay: fu,PL from membrane affinity to PL-covered silica beads, PC
Assay type: in vitro ADME
Details: beads coated with pure PC, 15 min incubation
Method: as §1, §2

Row | Structure (SMILES) | fu,PC Geomean
35 | CCN(CC)CCCC(C)Nc1c2ccc(Cl)cc2nc2ccc(OC)cc12 (stereo not drawn) [Quinacrine] | 0.0002

Same assay, conditions: silica beads covered with phosphatidylcholine (PC), Transil; beads coated with pure PC, 15 min incubation; read-out: fu,PC Geomean

Row | fraction unbound at 15 min | Structure (SMILES)
36 | 0.0114 | CCOc1cc(CC(=O)N[C@@H](CC(C)C)c2ccccc2N2CCCCC2)ccc1C(=O)O [Repaglinide]
37 | 0.0007 | Cc1cccc(C)c1OCC(=O)N[C@@H](Cc1ccccc1)[C@@H](O)C[C@H](Cc1ccccc1)NC(=O)[C@H](C(C)C)N1CCCNC1=O [Lopinavir]
38 | 0.0005 | Nc1ccc(/N=N/c2ccccc2)c(N)n1 [Phenazopyridine]

Test system: not listed separately
Assay: fu,PL from membrane affinity to PL-covered silica beads, PE
Assay type: in vitro ADME
Details: beads coated with pure PE, 15 min incubation; read-out: fu,PE Geomean
Method: as §1, §2

Row | fraction unbound at 15 min | Structure (SMILES)
39 | 0.0039 | CCOc1cc(CC(=O)N[C@@H](CC(C)C)c2ccccc2N2CCCCC2)ccc1C(=O)O [Repaglinide]
40 | 0.0026 | Cc1cccc(C)c1OCC(=O)N[C@@H](Cc1ccccc1)[C@@H](O)C[C@H](Cc1ccccc1)NC(=O)[C@H](C(C)C)N1CCCNC1=O [Lopinavir]
41 | 0.0019 | Nc1ccc(/N=N/c2ccccc2)c(N)n1 [Phenazopyridine]

Test system: not listed separately
Assay: fu,cell by equilibrium dialysis of cell homogenate, HL60
Assay type: in vitro ADME
Details: human, dialysis 4 h 37°C, 10 million cells/mL homogenate, read-out: fu,HL60 Geomean
Method: as §3, §4

Row | fraction unbound at 4 h, 0.5 μM | Structure (SMILES)
42 | 0.0341 | CCOc1cc(CC(=O)N[C@@H](CC(C)C)c2ccccc2N2CCCCC2)ccc1C(=O)O [Repaglinide]
43 | 0.0168 | Cc1cccc(C)c1OCC(=O)N[C@@H](Cc1ccccc1)[C@@H](O)C[C@H](Cc1ccccc1)NC(=O)[C@H](C(C)C)N1CCCNC1=O [Lopinavir]
44 | 0.0438 | Nc1ccc(/N=N/c2ccccc2)c(N)n1 [Phenazopyridine]

Test system: not listed separately
Assay: fu,cell by equilibrium dialysis of cell homogenate, K562
Assay type: in vitro ADME
Details: human, dialysis 4 h 37°C, 10 million cells/mL homogenate, read-out: fu,K562 Geomean
Method: as §3, §4

Row | fraction unbound at 4 h, 0.5 μM | Structure (SMILES)
45 | 0.0385 | CCOc1cc(CC(=O)N[C@@H](CC(C)C)c2ccccc2N2CCCCC2)ccc1C(=O)O [Repaglinide]
46 | 0.0234 | Cc1cccc(C)c1OCC(=O)N[C@@H](Cc1ccccc1)[C@@H](O)C[C@H](Cc1ccccc1)NC(=O)[C@H](C(C)C)N1CCCNC1=O [Lopinavir]
47 | 0.0348 | Nc1ccc(/N=N/c2ccccc2)c(N)n1 [Phenazopyridine]

Row | Structure (SMILES) | fraction unbound at 4 h, 0.5 μM
48 | CCN(CC)CCCC(C)Nc1c2ccc(Cl)cc2nc2ccc(OC)cc12 (stereo not drawn) [Quinacrine] | 0.0164
